Data: patent publication US20250326799A1, “AGENTS INDUCING VASCULARISATION” (Coegin Pharma AB, priority 2022, published 2025)
Entries after “also recorded” stand apart in the source; their conditions may differ.

Experiments:
Assay type in all cases: cell-based
[1] = system: Human umbilical cord endothelial cells (HUVECs); experiment: BrdU cell proliferation in HUVECs; settings: for stimulation of endothelial cell proliferation (BrdU) after NRP-1 knock-down: HUVECs treated with siRNA-NC or siRNA for NRP-1, then peptide; for endothelial cell proliferation (DNA synthesis, uptake of BrdU, O.D. 450 nm): 10 nM, 100 nM, 1000 nM, compared to control; for proliferation of human umbilical vascular endothelial cells (BrdU uptake): addition of the peptide, increasing concentration
Protocol: Cell proliferation was evaluated with BrdU Cell Proliferation Elisa Kit (Abcam, UK). After incubation at 37° C. overnight with respective complete medium, for NRP-1 knock down-relative experiments, HUVECs and HCASMCs on 96-well plates were transfected with siRNA/siRNA-NC directly; for test polypeptide stimulations, HUVECs and HCASMCs were starved with low-serum condition for additional 24 hours and 48 hours before treatments. At 32 hours after transfection or polypeptide stimulations, cells were cultured with BrdU reagent for another 16 hours to determine cell proliferation. Subsequent steps were performed as manufacturer's instructions and data were read by Wallac 1420 Victor 2 (Perkin Elmer, USA).
For stimulation of endothelial cell proliferation, human umbilical cord endothelial cells were first treated with a scramble non-coding siRNA (NC) or siRNA for NRP-1, subsequently they were treated with FOL26 in concentrations of 10 nM, 100 nM, and 1000 nM, and DNA synthesis analyzed by measuring the uptake of BrdU.
(§1) The impact of FOL-026 peptide on human umbilical vascular endothelial cells (HUVECs) proliferation (FIG. 18a) and apoptosis (FIG. 18c) induced with low-oxygen condition was determined by BrdU uptake (n=8-9 per group) and active caspase-3/-7 (n=7-10 per group) separately. The ROS level (FIG. 18b) activated by 50 ug/ml oxidized Low-density Lipoprotein (oxLDL) for 2 hours in cells pre-incubated with FOL-026 peptides was assessed using H2O2 measurement (n=4-8 per group). Representative pictures of endothelial migration into an in vitro scratch injury were shown (FIG. 19a) and the wound closure rate (FIG. 19b) in HUVECs stimulated with increasing concentration of FOL-026 peptide was quantified by image J software (n=8-9 per group). Scale bar=150 um. Data are presented as means±SEM and acquired from 3 to 4 independent replicate tests. *P<0.05, **P<0.01, ****P<0.0001 by one-way ANOVA and Dunnett's post-hoc test.
(§2) The efficiency of small interfering RNA transfection for 48 hours in HUVECs was confirmed by qRT-PCR (n=4) (FIG. 22a). Effect of FOL-026 peptide stimulation on cell proliferation (FIG. 22b) and cell apoptosis at 0.1% oxygen (FIG. 22c) in HUVECs transfected with siRNA-NC or siNRP-1 was evaluated by BrdU incorporation (n=4-7 per group) and active caspase-3/-7 ((n=4-7 per group). Representative pictures of endothelial cells at 0 and 5 hours after scratch wounding are shown in 23a. The wound closure rate (FIG. 23b) of siRNA-NC/siNRP-1-transfected HUVECs stimulated with increasing concentration of FOL-026 peptide was quantified by image J software (n=9-12 per group). Scale bar=150 um. Data are presented as means±SEM and acquired from 3 to 4 independent replicate tests. *P<0.05, **P<0.01, ***P<0.001, ****P<0.0001 by Student's t test for A, two-way ANOVA followed with Sidak's and Dunnett's multiple comparisons test for B, C and E.
The endothelial cell proliferation (FIG. 29a) was assessed with BrdU uptake in human umbilical vascular endothelial cells (HUVECs) stimulated with increasing concentration of FOL-005 peptide for 48 hours (n=7-10 per group).

[2] = system: human coronary artery smooth muscle cells (HCASMCs); experiment: sFasL-induced apoptosis, caspase 3 and 7 activation, HCASMCs; settings: 10 nM, 100 nM, 1000 nM
Protocol: Human Umbilical Vein Endothelial Cells (HUVECs) and Human Coronary Artery Smooth Muscle Cells (HCASMCs) were purchased from Thermo Fisher. Cells were grown in Medium 200 containing 2% Low Serum Growth Supplement and Medium 231 with 5% Smooth Muscle Growth Supplement (Invitrogen, CA, USA) respectively with addition of Antibiotic-Antimycotic (1%, Invitrogen, CA, USA). Test polypeptide and sFasL (PeproTech, NJ, USA) were dissolved in the respective complete medium.
Caspase-Glo 3/7 Assay (Promega, USA) was performed to evaluate cell apoptosis. HUVECs and HCASMCs were seeded into 96-well plates at a density of 3-5×10^3 per well. For additional NRP-1 on cells transfected siRNA, NRP-1 was added 24 hours after transfection and the mixture of Caspase-Glo 3/7 was added 48 hours after polypeptide stimulations. Subsequent steps were performed as manufacturer's instructions using the FOL26 and FOL56 as test compounds. Data were read by Wallac 1420 Victor 2 (Perkin Elmer, USA).

[3] = system: Human umbilical cord endothelial cells (HUVECs); experiment: Gene expression by PCR in endothelial cells; settings: for expression of PECAM-1 (CD31): HUVECs
Protocol: Human umbilical cord endothelial cells were first treated with a scramble non-coding siRNA (NC) or siRNA for NRP-1, subsequently treated with FOL26 in concentrations of 10 nM, 100 nM, and 1000 nM, and endothelial tube formation and the total master segemnts were measured using ImageJ. gene expression of PECAM-1 (CD31) analyzed.
Cells on 6-well plates were washed with cold DPBS (Gibco, USA) and homogenized in Trizol reagent (Invitrogen, CA, USA). Total RNA was extracted using PureLink RNA Mini Kit (Invitrogen, CA, USA), followed by nucleic acid quantification with NanoDrop 2000c (Thermo Fisher Scientific, USA). To determine mRNA expression of target genes, real-time qPCR was performed using by KAPA SYBR FAST One-Step qRT-PCR Master Mix Kit (KAPA Biosystems, USA) on LightCycler480 system (Roche, Mannheim, Germany). All primers were purchased from miScript Primer Assays (Qiagen, Valencia, CA) and GAPDH mRNA expression of each sample was used for normalization. Cells on 6-well plates were washed with cold DPBS and lysed with the mixture of lysis buffer and protease inhibitors on ice, then centrifuged at 15,000 g for 20 min at 4° C. Supernatant was performed to measure the protein concentration using BCA Protein Assay Kit (Thermo Fisher Scientific, USA). Protein sample was loaded onto SDS-PAGE gels and separated with electrophoresis, followed by transferred to PVDF membranes (Millipore, USA). Membranes were blocked with 5% nonfat milk. Primary antibodies (Abcam, UK) and secondary antibodies were performed to incubate with membranes at 4° C. overnight and at room temperature for 1 hour respectively. […]

[4] = system: human umbilical vascular endothelial cells (HUVECs); experiment: In vitro scratch wound closure, HUVECs; settings: for wound closure rate (scratch injury): HUVECs, increasing concentration of peptide
Protocol: as §1, §2
The effect of FOL-005 peptide on smooth muscle cell proliferation (FIG. 30a) was determined with BrdU incorporation in peptide-treated human coronary smooth muscle cells (HCASMCs). […]

Sequence | stimulation of endothelial cell proliferation (BrdU) after NRP-1 knock-down [1] | stimulation of endothelial cell proliferation (BrdU) after NRP-1 knock-down ([1]; listed as FOL26) | endothelial cell proliferation (DNA synthesis, uptake of BrdU, O.D. 450 nm) ([1]; HUVECs, listed as FOL26) | BrdU uptake after siRNA for NRP-1 ([1]; HUVECs, 10 and 100 nM) | proliferation of human umbilical vascular endothelial cells (BrdU uptake) ([1]; HUVECs) | sFasL-induced apoptosis (caspase 3 and 7) ([2]; listed as FOL26) | expression of PECAM-1 (CD31) ([3]; 10 nM, 100 nM, 1000 nM tested) | expression of PECAM-1 (CD31) ([3]; 100 nM and 1000 nM) | angiogenesis related genes ([3]; endothelial cells) | wound closure rate (scratch injury) [4] | wound closure rate after NRP-1 knock-down ([4]; siRNA-NC/siNRP-1-transfected HUVECs, increasing concentration, 5 hours) | endothelial cell proliferation (DNA synthesis, uptake of BrdU, O.D. 450 nm) ([1]; HUVECs) | sFasL-induced apoptosis (caspase 3 and 7) [2]
VDTYDGGISVVYGLR [FOL-026] | blocks the effect | NRP-1 dependent | significant increase in proliferation; also recorded: increase in O.D. (450 nm) | reduction | increases | reduced sFasL-induced apoptosis; also recorded: capable of reversing the sFasL-induced apoptosis | increased expression of PECAM-1 | increased | induces upregulation | accelerates HUVEC wound closure | positive effect on wound closure |  | 
AEIDSIELSYGIK [FOL56] |  |  |  |  |  |  | increased expression of PECAM-1 |  |  |  |  | significant increase in proliferation; also recorded: increases proliferation at all concentrations | reduced sFasL-induced apoptosis; also recorded: capable of inhibiting, or trended towards inhibiting apoptosis
VDTYDGDISVVYGLR [FOL-005] |  |  |  |  | increases |  |  |  |  | accelerate HUVEC wound closure |  |  | 
